We go through 13 molecules from paper PMC4973902, “Identification of Novel Smoothened Ligands Using Structure-Based Docking” (PLoS ONE, 2016).

Molecules are shown by their SMILES. Entries after “also recorded” stand apart in the source; their conditions may differ. Where two headings read alike, the source gives them in different places.

The test system of series [1] is Gli-Luciferase reporter in Ptch1-/- MEFs. Description: 8xGli-Luciferase reporter assay in Ptch1-/- MEFs. Particulars: for IC50 / inhibition at 30 µM: Mus musculus; for IC50: read-out: IC50 Gli-Luciferase assay (range, n); for inhibition at 30 µM: compared to DMSO; for Inhibition of Gli-Luciferase (yes/no): single-dose screen at 30 μM (vismodegib 100 nM). Type of series: cell-based, mouse. The protocol:
(§1) Antagonist candidates were tested using Ptch1^-/- reporter mouse embryonic fibroblasts (MEFs). In Ptch1^-/- cells, the Hh pathway is constitutively activated as a result of deletion of Patched-1, the Hedgehog receptor and a functional inhibitor of Smo. The reporter cells were engineered to express the 8XGli-Luciferase reporter that faithfully monitors levels of Gli-mediated transcriptional activity as a readout of Hedgehog signalling. Firefly Luciferase is therefore constitutively expressed in these cells and its expression is inhibited by Smo antagonists such as cyclopamine. In the initial test for activity, we screened the 21 docking hits at a dose of 30 μM. […] Their ability to repress the pathway was further confirmed by quantifying transcript levels of Gli1, a target gene of the Hedgehog pathway, using qPCR (Fig 1C and S1 Table).
Ptch1^-/- MEFs stably expressing the Gli-Luciferase reporter and constitutive Renilla Luciferase were used. The Gli-Luciferase reporter is a Firefly Luciferase reporter driven by 8xGli consensus binding site in its promoter, cloned in a lentiviral plasmid carrying a puromycin resistance for selection. For the assay, 5x10^4 cells/well were plated in 48-well plates. The next day, the confluent cells were serum-starved with plain DMEM for 24 h. Drugs and compounds were added to the indicated final concentration and incubated for 24 h, each condition in duplicate. For the assay, Promega Dual Glow reagents were used. Media was removed and cells were lysed in 50 μL Passive Lysis Buffer for 10 min. 10 μL of lysate was assayed in black plates with 10 μL of each substrate, in duplicate. Luminescence was measured with an EnVision 2100 (Perkin Elmer). Firefly Luciferase luminescence was divided by the Renilla Luciferase luminescence, then normalized to vehicle condition to obtain the fold change in reporter activity.
(Reporter assays use an easily measured gene product as a stand-in for the process of interest.)

In series [2] the test system is Gli1 expression in Ptch1-/- MEFs. Put plainly: qPCR of Gli1 expression in Ptch1-/- MEFs. Type of series: cell-based, mouse. Particulars: for IC50: Mus musculus. The protocol: as §1
(§2) Ptch1^-/- MEFs or C3H10T1/2 SMO cells (overexpression of mouse Smo wt or mouse Smo D477H using a retroviral vector) were plated at a density of 2x10^5 cells/well in 12-well plates. The next day, the confluent cells were serum-starved with plain DMEM for 24 h before drugs and compounds were added to the indicated final concentration. RNA was extracted using Trizol (Life Technologies, 15596–018) after 24 h. 1 μg of RNA was DNase-treated (Life Technologies, 18047–019) before being reverse transcribed into cDNA (High-Capacity Reverse Transcription kit, Life Technologies, 4368813). Real-time quantitative PCR reactions were performed on an ABI 7900HT in 384-well plates containing 20 ng cDNA, using Power SYBR Green PCR Master Mix (Life Technologies, 4367660). Relative Gli1 mRNA levels were calculated using the comparative Ct method, normalized to Gapdh mRNA. Primers used were validated as previously described.

Series [3] is described as follows: Aggregation counter-screens (DLS, centrifugation, unrelated enzymes), overall outcome. Type of series: physicochemical. Particulars: enzyme counter-screens. As to the method: All the antagonists with low micromolar IC50 were counter-screened for colloidal aggregation, a common mechanism of artefactual activity in early ligand discovery. […] These observations highlight the importance of counter-screening for this artefactual mechanism of action when evaluating new Smoothened antagonists.
(§3) The assays were performed as always with the addition of a centrifugation step. The antagonists were diluted in media to their final concentration. Half the solution was used as standard treatment: the media in wells was replaced with the media containing the drugs. The other half of the solution was then centrifuged for 20 min at 21,000g. The supernatant was used to replace the media in the wells.
(§4) Compounds 13b, 19b, 20b, 25b, 27b, 32b, 37b, 40b and 45b were diluted with both filtered DMEM and KPi, with a final concentration of 1% DMSO. Measurements were made using a DynaPro Plate Reader II system (Wyatt Technology) with a 60 mW laser at ~830 nm in either 96-well or 384-well plates; this particular instrument had been modified by Wyatt Technology to have a larger laser beam width that is appropriate for detecting large colloidal particles.
Both DMEM and KPi were used as buffer.

In series [4] the test system is Smo mutations at D473. The arrangement: method as in PMID 25008467. Particulars: cited from earlier work.
Series [5] addresses mouse Smoothened (Mus musculus, UniProt P56726). Conditions: for Binding (yes/no), BODIPY-cyclopamine displacement: HEK293 mSmo-mCherry.
Description: Using a stable line enabling the inducible expression of Smo-mCherry, we tested whether well-behaved, non-aggregating antagonists can specifically displace BODIPY-cyclopamine bound to Smoothened using flow cytometry.
Left: average cell fluorescence was measured by flow cytometry and plotted against antagonist concentration. Representative curve are shown.
A 293 stable cell line expressing tetracycline-inducible mouse Smoothened with mCherry fused to its C-terminus was used for these experiments. Cells were grown to confluence in the presence of 1 μg/mL tetracycline for 24 h. Cells were then incubated with 10 nM BODIPY-Cyclopamine and compounds for 2 h at 37°C. For FACS, cells were first trypsinized, fixed with 4% paraformaldehyde for 20 min, washed with TBS + 0.1% Triton X-100 and then sorted (FACS). BODIPY fluorescence was measured on the FACS Fortessa and FACS data was analyzed with FlowJo software. BODIPY fluorescence in control HEK293 was used to set the background threshold. Mean fluorescence was plotted against the compound concentration to calculate its IC50. For microscopy, fixed cells were imaged. Live cells were washed with PBS before fixing.
The subject of series [6] is TOPFLASH Wnt-ß-catenin reporter (Frizzled receptors). Description: TopFlash Wnt-ß-catenin reporter assay in HEK293T cells. Particulars: Wnt3a-conditioned media.
Description: We used HEK293T TopFlash cells, expressing a luciferase reporter under the control of a ß–catenin-responsive LEF/TCF promoter.
The assay was carried out in HEK293T, as described [71].
Series [7] can be described thus: Dynamic Light Scattering (DLS). Type of series: physicochemical. Particulars: 1 μM. As to the method: as §4
Series [8] has as its system D473H mutant of Smo. Details: method as in PMID 19726788. Conditions: cited from earlier work.
The target of series [9] is T1, Smoothened (Mus musculus, UniProt P56726).
T1 construct: endogenous in cells; host or cells: Ptch1-/- MEFs with 8xGli-Luciferase reporter (inferred)
Description: Centrifugation counter screen of Smo antagonism. Type of series: cell-based. Particulars: 20 min centrifugation; Gli-luciferase, Gli1 qPCR, bodipy-cyclopamine displacement. As to the method:
as §3
(In general: A counterscreen serves to expose hits that act by an unwanted route or on another target.)

Series [10] deals with T2, mouse D477H mutant (equivalent to human D473H) of Smo (Mus musculus, UniProt P56726, D477H).
T2 construct: expressed in transfected cells; host or cells: C3H10T1/2 cells, retroviral transduction
Put plainly: Gli1 qPCR dose-response in C3H10T1/2 cells overexpressing Smo D477H. Type of series: cell-based.
From the text: (§5) Fig 7 Binding poses and inhibition of vismodegib-resistant Smo by 45b. (A) Side view of the complex of Smo structure (represented as purple surface, TM6 was cut) with LY2940680 in the orthosteric site (represented as light pink sticks). (B)-(F) Predicted binding modes against the Smo WT of compounds 3, 6, 44, 244 and 45b, respectively. LY2940680 is represented as light pink wires, the compounds as green sticks, hydrogen bonds as black dashed lines and important residues as sticks. […] C3H10T1/2 cells were transduced with retrovirus for the overexpression of Smo wt or Smo D477H. (H) Predicted binding modes of compound 45b against a model of D473H Smo.
as §2, with “1 μg of RNA was DNase-treated (Life Technologies, 18047–019) before being reverse transcribed into cDNA (High-Capacity Reverse Transcription kit, Life Technologies, 4368813).” left out, “Primers used were validated as previously described.” left out
(Real-time PCR tracks product formation cycle by cycle.)

Series [11] concerns the target T3, Smo wt (Mus musculus, UniProt P56726).
T3 construct: expressed in transfected cells; host or cells: C3H10T1/2 cells, retroviral transduction
Description: Gli1 qPCR dose-response in C3H10T1/2 cells overexpressing Smo wt. Type of series: cell-based. Particulars: read-out: inhibition of Smo WT (dose-response, Fig 7G).
From the text: as §5
as §2, with “1 μg of RNA was DNase-treated (Life Technologies, 18047–019) before being reverse transcribed into cDNA (High-Capacity Reverse Transcription kit, Life Technologies, 4368813).” left out, “Primers used were validated as previously described.” left out

The mark [12] stands for this setting: 24 h, read-out: IC50 Gli1 qPCR (range, n).

Chain of mouse Smoothened (P56726 33-793): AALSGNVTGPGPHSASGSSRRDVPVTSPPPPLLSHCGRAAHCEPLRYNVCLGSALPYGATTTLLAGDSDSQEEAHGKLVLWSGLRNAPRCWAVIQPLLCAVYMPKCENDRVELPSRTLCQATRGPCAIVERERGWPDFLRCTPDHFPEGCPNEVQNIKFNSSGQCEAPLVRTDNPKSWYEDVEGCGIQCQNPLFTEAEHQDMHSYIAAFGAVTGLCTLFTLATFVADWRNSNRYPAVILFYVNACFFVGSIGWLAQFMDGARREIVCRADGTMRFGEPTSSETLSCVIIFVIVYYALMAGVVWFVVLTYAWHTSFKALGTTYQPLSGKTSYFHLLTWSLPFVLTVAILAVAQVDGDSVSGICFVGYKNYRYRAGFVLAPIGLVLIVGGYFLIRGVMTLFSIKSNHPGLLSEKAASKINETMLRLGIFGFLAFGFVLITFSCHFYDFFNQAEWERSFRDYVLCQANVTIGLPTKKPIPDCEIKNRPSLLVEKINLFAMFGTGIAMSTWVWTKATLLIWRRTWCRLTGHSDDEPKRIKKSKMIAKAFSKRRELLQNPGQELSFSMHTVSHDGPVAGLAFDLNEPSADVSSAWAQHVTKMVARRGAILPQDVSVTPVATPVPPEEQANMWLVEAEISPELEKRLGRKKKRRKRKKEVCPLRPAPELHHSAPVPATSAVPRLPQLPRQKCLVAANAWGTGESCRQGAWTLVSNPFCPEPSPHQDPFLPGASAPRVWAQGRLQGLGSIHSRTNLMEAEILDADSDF
T2 sequence (P56726 33-793 D477H): as the sequence (P56726 33-793) above, with D445H counted along it
T1 sequence (P56726 33-793): as the sequence (P56726 33-793) above
T3 sequence (P56726 33-793): as above

For the molecule `NC(=O)c1cc(-c2cc(NCc3cccnc3)nc3[nH]ccc23)cs1` [Compound 37b], the IC50 stood at 5.4 µM in series [1] (24 h) and 8.8 µM in [2] (setting [12]). In series [3], the “outcome of aggregation counter-screens” value was “well-behaved antagonists”.
As to `NC(=O)c1cc(-c2cc(NCc3ccccn3)nc3[nH]ccc23)cs1` [Compound 25b], the IC50 in [1] (24 h) is 2.3 µM; in series [2] (setting [12]) it was 7.8 µM. Moreover, the “outcome of aggregation counter-screens” value in series [3] is “well-behaved antagonists”.
As for `CN(C(=O)c1ccc(F)cc1C(F)(F)F)C1CCN(c2nnc(-c3ccnn3C)c3ccccc23)CC1` [taladegib], in series [4], the “efficacy in the resistant mutants” value was “unaffected or have minor drop in efficacy”.
For orientation: inhibition means the drop in the measured response relative to a control, in per cent. In the case of `COc1cc(-c2cc(NCc3ccccn3)nc3[nH]ccc23)ccc1O` [Compound 44], in series [1], the inhibition at 30 µM is above 50% and the “Inhibition of Gli-Luciferase (yes/no)” value is listed as “yes”. For the same molecule, the IC50 in series [1] (24 h) came out at 34.4 µM. Moreover, the “Inhibition - Gli1 qPCR (yes/no)” value in [2] is “yes”. In addition, the IC50 in [2] (setting [12]) worked out at 14 µM. In series [5], the IC50 is 15.6 µM and the “Binding (yes/no), BODIPY-cyclopamine displacement” value (“Binding (yes/no)” for short) was “yes”. Moreover, in series [3], the “outcome of aggregation counter-screens” value is on record as “well-behaved antagonists”.
`c1ccc(CNc2cc(-c3ccc4c(c3)CNCC4)c3cc[nH]c3n2)nc1` [Compound 19b]: the IC50 in [1] (24 h) came to 22.4 µM.
As to `CS(=O)(=O)c1ccc(C(=O)Nc2ccc(Cl)c(-c3ccccn3)c2)c(Cl)c1` [vismodegib, reference compound], the “activity on TOPFLASH Wnt-ß-catenin reporter” value in series [6] (100 nM) was “lack of inhibition”. For the same molecule, the IC50 was determined as 0.0306 µM in [1] and 0.0018 µM in series [2] (read-out: IC50 mGli1 qPCR (range, n)). The “particle formation by DLS” value in series [7] was “does not form particles”. In addition, the “reduction of binding to Smo by D473H mutation” value in [8] is 100 folds.
`CCC(C)n1ncn(-c2ccc(N3CCN(c4ccc(OCC5COC(Cn6cncn6)(c6ccc(Cl)cc6Cl)O5)cc4)CC3)cc2)c1=O` (stereo not drawn) [itraconazole]: the “radius of colloidal particles by DLS” value in [7] (DMEM) stood at 180 nm. Further, the “effect of centrifugation on antagonism of Smo” value in series [9] is listed as “disrupted by prior-centrifugation; also recorded: largely or entirely eliminated”.
On to `Cc1cc2c(-c3cc(NCc4ccccn4)nc4[nH]ccc34)ncnc2s1` [Compound 32b], for which the IC50 in series [1] (24 h) was 9.4 µM; in series [2] (setting [12]), 12.7 µM. In addition, in series [3], the “outcome of aggregation counter-screens” value is given as “well-behaved antagonists”.
On to `COc1ccccc1C(=O)Nc1cccc(NC(=O)Cc2cccnc2)c1` [Compound 13b], for which the IC50 in [1] (24 h) came out at 10.9 µM.
For `CSc1nc(C)cc(-c2cc(NCc3ccccn3)nc3[nH]ccc23)n1` [Compound 45b], the “activity on TOPFLASH Wnt-ß-catenin reporter” value in series [6] (10 μM, 24 hours co-treatment) is listed as “no detectable activity; also recorded: lack of inhibition”. Besides, the IC50 in series [1] (24 h) turned out to be 3.1 µM; in series [10] (C3H10T1/2 cells overexpressing mouse Smo D477H, read-out: inhibition of Smo D473H mutant (dose-response, Fig 7G)), 3.1 µM; in [2] (setting [12]) it was 5.3 µM; in [11], 1.1 µM; in [5] it was 12.7 µM. Besides, the “shift at D473H mutant relative to WT” value in series [10] (D473H vs WT) was found to be 2.7 fold. For the same molecule, the “outcome of aggregation counter-screens” value in [3] was “well-behaved antagonists”.
For the molecule `CN(C)c1ccc(CNC(=O)Nc2ccc(-n3ccnc3)nc2)cn1` [Compound 6], in [1], the inhibition at 30 µM was above 50% and the “Inhibition of Gli-Luciferase (yes/no)” value was “yes”. Also, in series [1] (24 h), the IC50 was found to be 20.8 µM. Besides, the “Inhibition - Gli1 qPCR (yes/no)” value in [2] is reported as “yes”. Also, the IC50 in [2] (setting [12]) was found to be 109 µM. Moreover, the “outcome of aggregation counter-screens” value in series [3] is recorded as “well-behaved antagonists”.
For `Cc1cccc(C(=O)Nc2cccc(NC(=O)Cc3cccnc3)c2)c1` [Compound 3], in series [1], the inhibition at 30 µM is above 50% and the “Inhibition of Gli-Luciferase (yes/no)” value is listed as “yes”. In series [1] (24 h), the IC50 is 43 µM. The “Inhibition - Gli1 qPCR (yes/no)” value in series [2] was “yes”. Moreover, the IC50 in [2] (setting [12]) came to 94.8 µM. In series [5], the IC50 turned out to be 166 µM and the “Binding (yes/no)” value was “yes”. Further, the “outcome of aggregation counter-screens” value in series [3] is on record as “well-behaved antagonists”.
For the molecule `NC(=O)c1ccc(-c2cc(NCc3ccccn3)nc3[nH]ccc23)o1` [Compound 244], in series [1], the inhibition at 30 µM was above 50% and the “Inhibition of Gli-Luciferase (yes/no)” value is listed as “yes”. Also, in series [1] (24 h), the IC50 is 5.3 µM. Besides, the “Inhibition - Gli1 qPCR (yes/no)” value in [2] was “yes”. Besides, in series [2] (setting [12]), the IC50 was 11.3 µM. For the same molecule, in series [5], the IC50 was 58.3 µM and the “Binding (yes/no)” value is recorded as “yes”. Also, the “outcome of aggregation counter-screens” value in series [3] is “well-behaved antagonists”.
